Our source for the IC50 and inhibition values is ChEMBL document CHEMBL3616392, “Design, synthesis and biological evaluation of novel tetrahydroisoquinoline derivatives as potential PDE4 inhibitors” (Bioorg Med Chem Lett, 2015).

pIC50: −log10 of the molar value.

As usually defined, the pIC50 is −log10 of the IC50, conventionally taken in molar units. A high value points to a small IC50. Usually inhibition stands for the change of the read-out against control, counted positive when it falls.

For experiment [1], the target named is 3',5'-cyclic-AMP phosphodiesterase 4B (Homo sapiens, UniProt Q07343). Nature of the experiment: Inhibition of PDE4B isolated from human U937 cells using [3H]-cAMP as substrate after 30 mins. Format: cell-free, U-937.
Sequence of 3',5'-cyclic-AMP phosphodiesterase 4B (Q07343 whole entry): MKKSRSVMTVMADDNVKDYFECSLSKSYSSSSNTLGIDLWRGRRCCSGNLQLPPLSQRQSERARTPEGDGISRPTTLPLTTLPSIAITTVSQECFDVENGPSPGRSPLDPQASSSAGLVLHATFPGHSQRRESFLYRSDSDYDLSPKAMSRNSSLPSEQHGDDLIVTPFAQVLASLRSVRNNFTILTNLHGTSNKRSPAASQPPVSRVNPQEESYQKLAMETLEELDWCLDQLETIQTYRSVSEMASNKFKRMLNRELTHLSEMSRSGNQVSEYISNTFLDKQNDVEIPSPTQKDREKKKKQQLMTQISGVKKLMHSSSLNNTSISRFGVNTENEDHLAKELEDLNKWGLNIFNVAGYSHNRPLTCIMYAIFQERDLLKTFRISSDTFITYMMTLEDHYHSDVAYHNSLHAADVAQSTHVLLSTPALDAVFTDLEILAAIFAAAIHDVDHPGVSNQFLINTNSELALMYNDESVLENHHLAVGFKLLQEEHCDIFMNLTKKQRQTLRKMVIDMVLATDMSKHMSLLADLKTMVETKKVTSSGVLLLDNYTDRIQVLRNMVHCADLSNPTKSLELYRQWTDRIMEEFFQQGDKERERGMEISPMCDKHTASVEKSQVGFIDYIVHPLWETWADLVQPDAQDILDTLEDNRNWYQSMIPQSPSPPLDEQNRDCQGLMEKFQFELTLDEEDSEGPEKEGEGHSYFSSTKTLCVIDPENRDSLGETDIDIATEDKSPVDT
The target of experiment [2] is 3',5'-cyclic-AMP phosphodiesterase 4D (Homo sapiens) (UniProt Q08499). Nature of the experiment: Inhibition of PDE4D isolated from human U937 cells using [3H]-cAMP as substrate at 20 uM after 30 mins. Format: cell-free. To be noted: U-937.
Sequence of 3',5'-cyclic-AMP phosphodiesterase 4D (Homo sapiens) (Q08499 whole entry): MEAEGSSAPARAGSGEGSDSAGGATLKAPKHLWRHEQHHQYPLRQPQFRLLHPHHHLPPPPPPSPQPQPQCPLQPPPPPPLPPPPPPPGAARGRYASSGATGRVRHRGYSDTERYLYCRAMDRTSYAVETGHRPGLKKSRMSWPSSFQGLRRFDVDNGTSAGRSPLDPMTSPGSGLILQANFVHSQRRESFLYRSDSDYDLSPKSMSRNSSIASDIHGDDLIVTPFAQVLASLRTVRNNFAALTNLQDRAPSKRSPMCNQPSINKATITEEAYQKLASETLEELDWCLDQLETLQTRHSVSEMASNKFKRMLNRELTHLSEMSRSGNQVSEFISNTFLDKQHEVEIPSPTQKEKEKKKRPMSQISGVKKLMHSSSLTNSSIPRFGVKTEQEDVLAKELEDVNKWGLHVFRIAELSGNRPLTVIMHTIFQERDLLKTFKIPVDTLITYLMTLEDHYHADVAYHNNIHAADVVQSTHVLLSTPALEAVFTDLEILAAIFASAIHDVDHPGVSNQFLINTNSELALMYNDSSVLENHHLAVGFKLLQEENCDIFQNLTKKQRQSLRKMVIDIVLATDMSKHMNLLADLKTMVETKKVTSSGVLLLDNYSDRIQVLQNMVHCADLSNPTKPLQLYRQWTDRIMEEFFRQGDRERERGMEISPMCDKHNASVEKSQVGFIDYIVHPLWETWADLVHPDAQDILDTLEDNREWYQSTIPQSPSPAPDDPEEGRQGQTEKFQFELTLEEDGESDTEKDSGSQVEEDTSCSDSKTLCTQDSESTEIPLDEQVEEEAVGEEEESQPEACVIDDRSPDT

The molecule `COc1cc2c(cc1OC1CCCC1)CN(C(=O)c1ccccc1F)CC2` gave a pIC50 in experiment [1] of 4.63.

The molecule `COc1cc2c(cc1OC1CCCC1)CN(C(=O)[C@H]1CC[C@H](N)CC1)CC2` had a negative-log IC50 (pIC50) in experiment [1] of less than 4.30. In turn, `COc1cc(C(=O)N2CCc3cc(OC)c(OC4CCCC4)cc3C2)ccc1O` showed a pIC50 in experiment [1] of 5.64. In experiment [2], this molecule displayed an inhibition of 17.4%. In the same order, the values of `COc1cc2c(cc1OC1CCCC1)CN(C(=O)c1ccccc1Cl)CC2` are 4.81 and 15.3%. `COc1cc2c(cc1OC1CCCC1)CN(Cc1ccccc1F)CC2` showed a pIC50 in experiment [1] of 4.37. As for `COc1cc2c(cc1OC1CCCC1)CN(C(=O)c1ccncc1)CC2`, the negative logarithm of the IC50 (pIC50) in experiment [1] is 4.80. This molecule also came in with an inhibition in experiment [2] of 12.1%. `COc1cc2c(cc1OC1CCCC1)CN(C(=O)c1ccccc1)CC2` had a negative logarithm of the IC50 (pIC50) in experiment [1] of 4.63.

For `COc1cc2c(cc1OC1CCCC1)CN(C(=O)c1ccccc1OC)CC2`, in experiment [1], the negative logarithm of the IC50 (pIC50) was 4.43. Same read-out and setting: for `COc1cc(CN2CCc3cc(OC)c(OC4CCCC4)cc3C2)ccc1O` the value was 4.57.

In experiment [1], `COc1cc2c(cc1OC1CCCC1)CN(Cc1ccncc1)CC2` had a negative-log IC50 (pIC50) of 4.42. Still for that read-out and setting: for `COc1cc2c(cc1OC1CCCC1)CN(C(=O)C1=C[C@@H](O)[C@@H](O)[C@H](O)C1)CC2` the value was less than 4.30. Same read-out and setting: for `COc1cc2c(cc1OC1CCCC1)CN(C(=O)c1ccccn1)CC2` the value was 4.42.
